In ChEMBL document CHEMBL1201862, “PubChem BioAssay data set” (2004):
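Results reflect a 48-hour exposure of cells in 96-well plates to compound at five concentrations. GI50 is the concentration that inhibits growth by half.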 Activity calls are given as the source filed them. Cut-off read from the data, not from the text of the source: active = GI50 up to about 1.1 µM and inactive = higher.

Legend:
Assay in all cases: DTP human tumour cell line panel, 48 h
ACHN = tested on: ACHN
NCI-H522 = tested on: NCI-H522
MCF7 = tested on: MCF7
HCT-15 = tested on: HCT-15
OVCAR-8 = tested on: OVCAR-8
U-251 = tested on: U-251
NCI/ADR-RES = tested on: NCI/ADR-RES
OVCAR-3 = tested on: OVCAR-3
MDA-N = tested on: MDA-N
786-0 = tested on: 786-0
LOX IMVI = tested on: LOX IMVI
SF-295 = tested on: SF-295
BT-549 = tested on: BT-549
SK-MEL-28 = tested on: SK-MEL-28
CAKI-1 = tested on: CAKI-1
OVCAR-4 = tested on: OVCAR-4
SN12C = tested on: SN12C
RPMI-8226 = tested on: RPMI-8226
T47D = tested on: T47D
SNB-75 = tested on: SNB-75

Compound	GI50 (ACHN)	GI50 (NCI-H522)	GI50 (MCF7)	GI50 (HCT-15)	GI50 (OVCAR-8)	GI50 (U-251)	GI50 (NCI/ADR-RES)	GI50 (OVCAR-3)	GI50 (MDA-N)	GI50 (786-0)	GI50 (LOX IMVI)	GI50 (SF-295)	GI50 (BT-549)	GI50 (SK-MEL-28)	GI50 (CAKI-1)	GI50 (OVCAR-4)	GI50 (SN12C)	GI50 (RPMI-8226)	GI50 (T47D)	GI50 (SNB-75)
O=C1/C(=C/c2ccccc2)CN(C(=O)CCN2CCOCC2)C/C1=C\c1ccccc1	3.49 µM (inactive)	2.01 µM (inactive)	1.95 µM (inactive)	2.14 µM	2.99 µM (inactive)	1.79 µM (inactive)	3.16 µM (inactive)	3.91 µM (inactive)	2.06 µM (inactive)	1.96 µM (inactive)	0.897 µM (active)	2.42 µM (inactive)	2.14 µM (inactive)	1.86 µM (inactive)	10.1 µM (inactive)	2.94 µM (inactive)	2.18 µM (inactive)	0.519 µM (active)	3.34 µM (inactive)	7.18 µM (inactive)
COc1ccc(N[S+]([O-])c2ccc(OC)cc2)cc1 (configuration not stated)	95.1 µM (inactive)	21.5 µM (inactive)	31.6 µM (inactive)	11.2 µM	82.2 µM (inactive)	12.5 µM (inactive)	56.6 µM (inactive)	> 100 µM (inactive)	41.3 µM (inactive)	84.9 µM (inactive)	17.4 µM (inactive)	24 µM (inactive)	14.8 µM (inactive)	> 100 µM (inactive)	52.7 µM (inactive)	> 100 µM (inactive)	> 100 µM (inactive)	47 µM (inactive)	15.5 µM (inactive)	–
CCCCCCCC1c2cc3nc(cc4[nH]c(cc5nc(cc([nH]2)[C@@]1(C)CC(=O)N(C)C)C(C)=C5CCC(=O)O)c(CCC(=O)O)c4C)C=C3C (some centres not stated)	18.5 µM (inactive)	18.4 µM (inactive)	32.1 µM (inactive)	20.3 µM	–	18.9 µM (inactive)	20.4 µM (inactive)	17.5 µM (inactive)	31 µM (inactive)	29.5 µM (inactive)	17.6 µM (inactive)	18.9 µM (inactive)	14.9 µM (inactive)	19.1 µM (inactive)	39 µM (inactive)	32.8 µM (inactive)	30.4 µM (inactive)	17.7 µM (inactive)	34.9 µM (inactive)	18.7 µM (inactive)
O=c1[nH]c2nc3ccccc3c(=O)n2/c1=C/c1ccc(Cl)cc1	65.3 µM (inactive)	12.6 µM (inactive)	50.1 µM (inactive)	27.2 µM	16.1 µM (inactive)	28.2 µM (inactive)	26.2 µM (inactive)	24.3 µM (inactive)	22.2 µM (inactive)	24.2 µM (inactive)	30.4 µM (inactive)	54.6 µM (inactive)	16.9 µM (inactive)	23.5 µM (inactive)	> 100 µM (inactive)	> 100 µM (inactive)	26.8 µM (inactive)	82.8 µM (inactive)	36.2 µM (inactive)	–
CC1OC(OCC2OC(Oc3ccc(C4CC(=O)c5c(O)cc(O)cc5O4)cc3O)C(O)C(O)C2O)C(O)C(O)C1O (configuration not stated)	> 100 µM (inactive)	> 100 µM (inactive)	> 100 µM (inactive)	> 100 µM	> 100 µM (inactive)	> 100 µM (inactive)	> 100 µM (inactive)	> 100 µM (inactive)	> 100 µM (inactive)	> 100 µM (inactive)	> 100 µM (inactive)	> 100 µM (inactive)	> 100 µM (inactive)	> 100 µM (inactive)	> 100 µM (inactive)	> 100 µM (inactive)	> 100 µM (inactive)	> 100 µM (inactive)	> 100 µM (inactive)	> 100 µM (inactive)
COc1cc(C2c3cc4c(cc3OC(O)C2C)OCO4)cc(OC)c1O (configuration not stated)	12.4 µM (inactive)	2.12 µM (inactive)	4.4 µM (inactive)	5.43 µM	16.6 µM (inactive)	7.16 µM (inactive)	3.49 µM (inactive)	4.24 µM (inactive)	1.84 µM (inactive)	8.89 µM (inactive)	8.67 µM (inactive)	3.92 µM (inactive)	7.26 µM (inactive)	28.7 µM (inactive)	8.79 µM (inactive)	35.1 µM (inactive)	11.8 µM (inactive)	7.4 µM (inactive)	7.64 µM (inactive)	3.29 µM (inactive)
CCCCCCCCCCCNC=O	40.5 µM (inactive)	24.5 µM (inactive)	37.9 µM (inactive)	27.4 µM	58.1 µM (inactive)	25.9 µM (inactive)	30.6 µM (inactive)	35.4 µM (inactive)	56.6 µM (inactive)	> 100 µM (inactive)	51.9 µM (inactive)	36.9 µM (inactive)	21.8 µM (inactive)	68.5 µM (inactive)	33.3 µM (inactive)	45.3 µM (inactive)	63.4 µM (inactive)	28.1 µM (inactive)	39.2 µM (inactive)	50.8 µM (inactive)
CN(C)c1ccc(C(=NN)c2ccc(N(C)C)cc2)cc1	8.3 µM (inactive)	0.25 µM (active)	0.573 µM (active)	0.229 µM	2.52 µM (inactive)	0.486 µM (active)	0.179 µM (active)	0.798 µM (active)	0.0818 µM (active)	4.8 µM (inactive)	0.966 µM (active)	0.449 µM (active)	1.77 µM (inactive)	> 66.1 µM (inactive)	0.276 µM (active)	9.62 µM (inactive)	2.56 µM (inactive)	0.859 µM (active)	1.66 µM (inactive)	0.401 µM (active)
O=C1NC2(CCCCC2)N=C2C(Cl)CCCC12Cl (configuration not stated)	> 100 µM (inactive)	> 100 µM (inactive)	> 100 µM (inactive)	> 100 µM	> 100 µM (inactive)	> 100 µM (inactive)	> 100 µM (inactive)	> 100 µM (inactive)	> 100 µM (inactive)	> 100 µM (inactive)	> 100 µM (inactive)	> 100 µM (inactive)	> 100 µM (inactive)	> 100 µM (inactive)	–	> 100 µM (inactive)	> 100 µM (inactive)	> 100 µM (inactive)	> 100 µM (inactive)	> 100 µM (inactive)
O=C(NCCCN(CCCCN(CCCNC(=O)C(F)(F)F)CCCc1ccccc1)CCCc1ccccc1)C(F)(F)F	2 µM (inactive)	1.78 µM (inactive)	1.48 µM (inactive)	1.44 µM	1.74 µM (inactive)	1.6 µM (inactive)	3.45 µM (inactive)	–	1.65 µM (inactive)	1.25 µM (inactive)	1.85 µM (inactive)	1.81 µM (inactive)	2.68 µM (inactive)	1.64 µM (inactive)	1.94 µM (inactive)	5.78 µM (inactive)	2.08 µM (inactive)	2.63 µM (inactive)	1.85 µM (inactive)	1.12 µM (active)
COc1cc(/C=N/N=C2NCCCCN2)ccc1O	> 100 µM (inactive)	> 100 µM (inactive)	50.2 µM (inactive)	> 100 µM	> 100 µM (inactive)	> 100 µM (inactive)	> 100 µM (inactive)	> 100 µM (inactive)	> 100 µM (inactive)	> 100 µM (inactive)	> 100 µM (inactive)	61.7 µM (inactive)	> 100 µM (inactive)	> 100 µM (inactive)	–	> 100 µM (inactive)	> 100 µM (inactive)	> 100 µM (inactive)	53.8 µM (inactive)	> 100 µM (inactive)
CC(=O)Nc1cc2cc(NS(=O)(=O)c3cc(C(F)(F)F)cc(C(F)(F)F)c3)ccc2oc1=O	> 100 µM (inactive)	> 100 µM (inactive)	> 100 µM (inactive)	> 100 µM	34.3 µM (inactive)	28.7 µM (inactive)	> 100 µM (inactive)	52.1 µM (inactive)	> 100 µM (inactive)	72.3 µM (inactive)	98.6 µM (inactive)	> 100 µM (inactive)	> 100 µM (inactive)	> 100 µM (inactive)	> 100 µM (inactive)	> 100 µM (inactive)	> 100 µM (inactive)	> 100 µM (inactive)	> 100 µM (inactive)	–
O=[N+]([O-])c1cc2oc(COc3ccccc3)nc2cc1Cl	48.3 µM (inactive)	18 µM (inactive)	23.8 µM (inactive)	18.7 µM	35.2 µM (inactive)	22.8 µM (inactive)	21.4 µM (inactive)	17.9 µM (inactive)	25.9 µM (inactive)	33.1 µM (inactive)	16.7 µM (inactive)	17.4 µM (inactive)	20.8 µM (inactive)	32.6 µM (inactive)	22.7 µM (inactive)	34.9 µM (inactive)	24.7 µM (inactive)	23.7 µM (inactive)	18.4 µM (inactive)	18.7 µM (inactive)
NS(=O)(=O)c1ccc(NS(=O)(=O)c2ccc(NC(=O)N(c3ccccc3)c3ccccc3)cc2)cc1	> 100 µM (inactive)	30.5 µM (inactive)	52.7 µM (inactive)	> 100 µM	> 100 µM (inactive)	> 100 µM (inactive)	> 100 µM (inactive)	19.1 µM (inactive)	32.3 µM (inactive)	68.9 µM (inactive)	34.4 µM (inactive)	35.7 µM (inactive)	87.1 µM (inactive)	> 100 µM (inactive)	67 µM (inactive)	45.2 µM (inactive)	> 100 µM (inactive)	24.8 µM (inactive)	48 µM (inactive)	–
